In this experiment the test system is NRF2 (NQO1 activity as marker for NRF2 activation), BEAS-2B cells. The experiment can be described thus: BEAS-2B NQO1 MTT Assay. It is filed as cell-based. The following applies: Homo sapiens, EC50 of NQO1 specific activity induction, 48 hours incubation, read-out: EC50. The procedure, abridged: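 BEAS-2B cells were exposed to compound for 48 h at 37° C, 5% CO2, then lysed. NQO1 activity was measured kinetically by MTT reduction at 570 nm over 30 minutes; EC50 came from 3-parameter fit of Delta OD/min versus log concentration.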

Each structure is given as a SMILES string.

18 compounds from US11078216B2, “Bisaryl amides as NRF2 activators” (GLAXOSMITHKLINE INTELLECTUAL PROPERTY DEVELOPMENT LIMITED, priority 2016, dated 2021) can be followed below.

For the compound `CC[C@H]1Cc2cccc(C(F)(F)F)c2CN(Cc2cc([C@@H](c3ccc4c(nnn4CC)c3C)C(C)(C)C(N)=O)ccc2C)C1` [Example 183, (S)-3-(1-ethyl-4-methyl-1H-benzo[d][1,2,3]triazol-5-yl)-3-(3-(((S)-4-ethyl-9-(trifluoromethyl)-4,5-dihydro-1H-benzo[c]azepin-2(3H)-yl)methyl)-4-methylphenyl)-2,2-dimethylpropanamide], the EC50 (usually the concentration at which the effect is half-maximal) fell in the range of 100 to 1000 nM. As for `CC[C@@H]1CN(Cc2cc([C@@H](c3ccc4c(nnn4CC)c3C)C(C)(C)C(N)=O)ccc2C)Cc2ncccc2O1` [Example 184, (S)-3-(3-(((R)-2-ethyl-2,3-dihydropyrido[2,3-f][1,4]oxazepin-4(5H)-yl)methyl)-4-methylphenyl)-3-(1-ethyl-4-methyl-1H-benzo[d][1,2,3]triazol-5-yl)-2,2-dimethylpropanamide], the figure is 100 to 1000 nM; as for `CC[C@@H]1CN(Cc2cc([C@@H](CCc3cn(C4CCC4)nn3)C(C)(C)C(N)=O)ccc2Cl)S(=O)(=O)c2ccccc2O1` [Example 185, (R)-3-(4-chloro-3-(((R)-4-ethyl-1,1-dioxido-3,4-dihydro-2H-benzo[b][1,4,5]oxathiazepin-2-yl)methyl)phenyl)-5-(1-cyclobutyl-1H-1,2,3-triazol-4-yl)-2,2-dimethylpentanamide], 100 to 1000 nM.

In the case of `CC[C@@H]1CN(Cc2cc([C@@H](c3ccc4c(nnn4CC)c3C)C(C)(C)C(=O)Nc3cnc(CO[Si](C)(C)C(C)(C)C)nc3)ccc2C)S(=O)(=O)c2ccccc2O1` [Example 186, (S)—N-(2-(((tert-Butyldimethylsilyl)oxy)methyl)pyrimidin-5-yl)-3-(3-(((R)-4-ethyl-1,1-dioxido-3,4-dihydro-2H-benzo[b][1,4,5]oxathiazepin-2-yl)methyl)-4-methylphenyl)-3-(1-ethyl-4-methyl-1H-benzo[d][1,2,3]triazol-5-yl)-2,2-dimethylpropanamide], the EC50 lay in the range of 100 to 1000 nM.

Take `CC[C@@H]1CN(Cc2cc([C@@H](c3ccc4c(nnn4CC)c3C)C(C)(C)C(=O)Nc3cnc(C(C)(C)O[Si](C)(C)C(C)(C)C)nc3)ccc2C)S(=O)(=O)c2ccccc2O1` [Example 187, (S)-N-(2-(2-((tert-Butyldimethylsilyl)oxy)propan-2-yl)pyrimidin-5-yl)-3-(3-(((R)-4-ethyl-1,1-dioxido-3,4-dihydro-2H-benzo[b][1,4,5]oxathiazepin-2-yl)methyl)-4-methylphenyl)-3-(1-ethyl-4-methyl-1H-benzo[d][1,2,3]triazol-5-yl)-2,2-dimethylpropanamide]: the EC50 was 1000 to 10000 nM. Turning to `CC[C@@H]1CN(Cc2cc([C@@H](c3ccc4c(nnn4CC)c3C)C(C)(C)C(=O)Nc3cnc(CNC(=O)OC(C)(C)C)nc3)ccc2C)S(=O)(=O)c2ccccc2O1` [Example 188, tert-Butyl ((5-((S)-3-(3-(((R)-4-ethyl-1,1-dioxido-3,4-dihydro-2H-benzo[b][1,4,5]oxathiazepin-2-yl)methyl)-4-methylphenyl)-3-(1-ethyl-4-methyl-1H-benzo[d][1,2,3]triazol-5-yl)-2,2-dimethylpropanamido)pyrimidin-2-yl)methyl)carbamate], the EC50 was in the range of 10 to 100 nM. In the case of `CC[C@@H]1CN(Cc2cc([C@@H](c3ccc4c(nnn4CC)c3C)C(C)(C)C(=O)Nc3cnc(C(=O)N(C)C)nc3)ccc2C)S(=O)(=O)c2ccccc2O1` [Example 189, 5-((S)-3-(3-(((R)-4-Ethyl-1,1-dioxido-3,4-dihydro-2H-benzo[b][1,4,5]oxathiazepin-2-yl)methyl)-4-methylphenyl)-3-(1-ethyl-4-methyl-1H-benzo[d][1,2,3]triazol-5-yl)-2,2-dimethylpropanamido)-N,N-dimethylpyrimidine-2-carboxamide], the EC50 lay in the range of 100 to 1000 nM. The result for `CC[C@@H]1CN(Cc2cc([C@@H](c3ccc4c(nnn4CC)c3C)C(C)(C)C(=O)Nc3cnc(OCC(=O)OC)nc3)ccc2C)S(=O)(=O)c2ccccc2O1` [Example 190, Methyl 2-((5-((S)-3-(3-(((R)-4-ethyl-1,1-dioxido-3,4-dihydro-2H-benzo[b][1,4,5]oxathiazepin-2-yl)methyl)-4-methylphenyl)-3-(1-ethyl-4-methyl-1H-benzo[d][1,2,3]triazol-5-yl)-2,2-dimethylpropanamido)pyrimidin-2-yl)oxy)acetate] reads 100 to 1000 nM. The result for `CC[C@@H]1CN(Cc2cc([C@@H](c3ccc4c(nnn4CC)c3C)C(C)(C)C(=O)Nc3cnc(OCCNC(=O)OC(C)(C)C)nc3)ccc2C)S(=O)(=O)c2ccccc2O1` [Example 191, tert-Butyl (2-((5-((S)-3-(3-(((R)-4-ethyl-1,1-dioxido-3,4-dihydro-2H-benzo[b]-[1,4,5]oxathiazepin-2-yl)methyl)-4-methylphenyl)-3-(1-ethyl-4-methyl-1H-benzo[d][1,2,3]triazol-5-yl)-2,2-dimethylpropanamido)pyrimidin-2-yl)oxy)-ethyl)carbamate] reads 10 to 100 nM; that for `CC[C@@H]1CN(Cc2cc([C@@H](c3ccc4c(nnn4CC)c3C)C(C)(C)C(=O)Nc3cnc(OCCOC(C)(C)C)nc3)ccc2C)S(=O)(=O)c2ccccc2O1` [Example 192, (S)-N-(2-(2-(tert-Butoxy)ethoxy)pyrimidin-5-yl)-3-(3-(((R)-4-ethyl-1,1-dioxido-3,4-dihydro-2H-benzo[b][1,4,5]oxathiazepin-2-yl)methyl)-4-methylphenyl)-3-(1-ethyl-4-methyl-1H-benzo[d][1,2,3]triazol-5-yl)-2,2-dimethylpropanamide], 10 to 100 nM; that for `CC[C@@H]1CN(Cc2cc([C@@H](c3ccc4c(nnn4CC)c3C)C(C)(C)C(=O)Nc3cnc(OCCOC)nc3)ccc2C)S(=O)(=O)c2ccccc2O1` [Example 193, (S)-3-(3-(((R)-4-Ethyl-1,1-dioxido-3,4-dihydro-2H-benzo[b][1,4,5]oxathiazepin-2-yl)methyl)-4-methylphenyl)-3-(1-ethyl-4-methyl-1H-benzo[d][1,2,3]triazol-5-yl)-N-(2-(2-methoxyethoxy)pyrimidin-5-yl)-2,2-dimethylpropanamide], 1 to 10 nM. As for `CC[C@@H]1CN(Cc2cc([C@@H](c3ccc4c(nnn4CC)c3C)C(C)(C)C(=O)Nc3cnc(CO)nc3)ccc2C)S(=O)(=O)c2ccccc2O1` [Example 194, (S)-3-(3-(((R)-4-Ethyl-1,1-dioxido-3,4-dihydro-2H-benzo[b][1,4,5]oxathiazepin-2-yl)methyl)-4-methylphenyl)-3-(1-ethyl-4-methyl-1H-benzo[d][1,2,3]triazol-5-yl)-N-(2-(hydroxymethyl)pyrimidin-5-yl)-2,2-dimethylpropanamide], the figure is 10 to 100 nM.

Regarding `CC[C@@H]1CN(Cc2cc([C@@H](c3ccc4c(nnn4CC)c3C)C(C)(C)C(=O)Nc3cnc(C(=O)O)nc3)ccc2C)S(=O)(=O)c2ccccc2O1` [Example 195, 5-((S)-3-(3-(((R)-4-Ethyl-1,1-dioxido-3,4-dihydro-2H-benzo[b][1,4,5]oxathiazepin-2-yl)methyl)-4-methylphenyl)-3-(1-ethyl-4-methyl-1H-benzo[d][1,2,3]triazol-5-yl)-2,2-dimethylpropanamido)pyrimidine-2-carboxylic Acid], the EC50 fell in the range of 10 to 100 nM. The result for `CC[C@@H]1CN(Cc2cc([C@@H](c3ccc4c(nnn4CC)c3C)C(C)(C)C(=O)Nc3cnc(CN)nc3)ccc2C)S(=O)(=O)c2ccccc2O1` [Example 196, (S)—N-(2-(Aminomethyl)pyrimidin-5-yl)-3-(3-(((R)-4-ethyl-1,1-dioxido-3,4-dihydro-2H-benzo[b][1,4,5]oxathiazepin-2-yl)methyl)-4-methylphenyl)-3-(1-ethyl-4-methyl-1H-benzo[d][1,2,3]triazol-5-yl)-2,2-dimethylpropanamide] reads 100 to 1000 nM; that for `CC[C@@H]1CN(Cc2cc([C@@H](c3ccc4c(nnn4CC)c3C)C(C)(C)C(=O)Nc3cnc(OCC(=O)O)nc3)ccc2C)S(=O)(=O)c2ccccc2O1` [Example 197, 2-((5-((S)-3-(3-(((R)-4-Ethyl-1,1-dioxido-3,4-dihydro-2H-benzo[b][1,4,5]oxathiazepin-2-yl)methyl)-4-methylphenyl)-3-(1-ethyl-4-methyl-1H-benzo[d][1,2,3]triazol-5-yl)-2,2-dimethylpropanamido)pyrimidin-2-yl)oxy)acetic Acid], 10 to 100 nM; that for `CC[C@@H]1CN(Cc2cc([C@@H](c3ccc4c(nnn4CC)c3C)C(C)(C)C(=O)Nc3cnc(OCCN)nc3)ccc2C)S(=O)(=O)c2ccccc2O1` [Example 198, (S)—N-(2-(2-Aminoethoxy)pyrimidin-5-yl)-3-(3-(((R)-4-ethyl-1,1-dioxido-3,4-dihydro-2H-benzo[b][1,4,5]oxathiazepin-2-yl)methyl)-4-methylphenyl)-3-(1-ethyl-4-methyl-1H-benzo[d][1,2,3]triazol-5-yl)-2,2-dimethylpropanamide], 10 to 100 nM. As for `CC[C@@H]1CN(Cc2cc([C@@H](c3ccc4c(nnn4CC)c3C)C(C)(C)C(=O)Nc3cnc(OCCO)nc3)ccc2C)S(=O)(=O)c2ccccc2O1` [Example 199, (S)-3-(3-(((R)-4-Ethyl-1,1-dioxido-3,4-dihydro-2H-benzo[b][1,4,5]oxathiazepin-2-yl)methyl)-4-methylphenyl)-3-(1-ethyl-4-methyl-1H-benzo[d][1,2,3]triazol-5-yl)-N-(2-(2-hydroxyethoxy)pyrimidin-5-yl)-2,2-dimethylpropanamide], the figure is 10 to 100 nM; as for `CC[C@@H]1CN(Cc2cc([C@@H](c3ccc4c(nnn4CC)c3C)C(C)(C)C(=O)NCC(=O)O)ccc2C)S(=O)(=O)c2ccccc2O1` [Example 200, 2-((S)-3-(3-(((R)-4-ethyl-1,1-dioxido-3,4-dihydro-2H-benzo[b][1,4,5]oxathiazepin-2-yl)methyl)-4-methylphenyl)-3-(1-ethyl-4-methyl-1H-benzo[d][1,2,3]triazol-5-yl)-2,2-dimethylpropanamido)acetate], 10 to 100 nM.
